Results as given in US20250177359A1, “COMPOUNDS FOR USE IN THE TREATMENT OF CANCER AND INFLAMMATORY CONDITIONS” (priority 2022, published 2025).
Read-outs that look alike come from different tables or passages of the source.

Key:
PARP2 = target: T1, PARP2 (Homo sapiens, UniProt Q9UGN5); test: biochemical; type: biochemical
T1 construct: made in house
Protocol: (§1) All starting materials, reagents, and solvents were purchased from common commercial suppliers and were used as such without further purification. […] Organic solutions were dried over anhydrous Na2SO4 and concentrated with rotary evaporator at low pressure. All the reactions were routinely checked by thin-layer chromatography (TLC) on silica gel 60F254 (Merck) and visualized by using UV and iodine. Flash chromatography separations were carried out on Merck silica gel 60 (mesh 230-400) or by using automated Buchi Reveleris X2-UV with column FP Ecoflex Si 12 g. Yields were of purified products and were not optimized. ^1HNMR spectra were recorded at 400 MHz (Bruker Avance DRX-400), while ^13CNMR spectra were recorded at 101 MHz (Bruker Avance DRX-400). Chemical shifts are given in ppm (δ) relative to TMS. […] Mating constant (J) are reported in Hz. The purity of the tested compounds was evaluated by HPLC analysis using Jasco LC-4000 instrument equipped with a UV-Visible Diode Array Jasco-MD4015 (Jasco Corporation, Tokyo, Japan), and XTerra MS C18 column, 5 μm×4.6 mm×150 mm (Waters Corporation, Massachusetts, USA). Chromatograms were analyzed by ChromNAV2.0 Chromatography Data System software. […] The peak retention time (ret. time) is given in minutes. […] 1-Isobutoxy-4-methoxy-2-nitrobenzene (113). Isobutyl alcohol (0.6 mL, 6.43 mmol) was added, under nitrogen atmosphere at 0° C., to a suspension of NaH (0.26 g, 6.43 mmol) in dry DMF. After 15 minutes, 1-fluoro-4-methoxy-2-nitrobenzene 112 (1 g, 5.84 mmol) was also added and the reaction mixture was stirred at 80° C. for 4 h. […] (2-Isobutoxy-5-methoxyphenyl)amine (114). Zn (1.57 g, 24 mmol) and NH4C1 (2.45 g, 40 mmol) were added to a solution of 113 (0.46 g, 2 mmol) in acetone/H2O (50 mL, ratio 5:1). The reaction mixture was stirred at 60° C. for 3 h and, then, it was filtered over celite. […] N-(2,5-diethoxyphenyl)thiourea (55). […] N-(2-isobutoxy-5-methoxyphenyl)thiourea (115). […] A solution of Br2 (0.2 mL, 3.3 mmol) in CHCl3 (5 mL) was slowly added to a suspension of 45 (0.6 g, 3.3 mmol) in CHCl3 (13 mL), at 0° C. The reaction mixture was stirred at r.t. for 4 h and, then, a 10% solution of Na2SO3 in water was added to the mixture. […] 4,7-Diethoxy-1,3-benzothiazol-2-amine (66). […] 4-Isobutoxy-7-methoxy-1,3-benzothiazol-2-amine (116). […] Hydrazine hydrate (0.23 mL, 4.77 mmol) and CH3COOH (0.12 mL, 2.1 mmol) were added to a suspension of 56 (0.29 g, 1.59 mmol) in ethylene glycol (8 mL), and the reaction mixture was stirred for 24 h at 125° C. […] 6-Ethyl-2-hydrazino-1,3-benzothiazole (69). […] 6-Ispropyl-2-hydrazino-1,3-benzothiazole (70). […] 2-Hydrazino-4,7-dimethoxy-1,3-benzothiazole (73). […] 2-Hydrazino-5,7-dimethoxy-1,3-benzothiazole (75). […] 2-Hydrazino-4,7-Diethoxy-1,3-benzothiazole (77). […] 2-Hydrazino-5-methyl[1,3]thiazolo[5,4-b]pyridine (100). […] A solution of 67 (0.13 g, 0.65 mmol) in formic acid (5 mL) was refluxed for 10 h. The reaction mixture was then poured into ice/water and the pH was neutralized using a saturated solution of NaHCO3.

TNKS2 = target: T2, TNKS2 (Homo sapiens, UniProt Q9H2K2); test: biochemical
T2 sequence (Q9H2K2 1-1166): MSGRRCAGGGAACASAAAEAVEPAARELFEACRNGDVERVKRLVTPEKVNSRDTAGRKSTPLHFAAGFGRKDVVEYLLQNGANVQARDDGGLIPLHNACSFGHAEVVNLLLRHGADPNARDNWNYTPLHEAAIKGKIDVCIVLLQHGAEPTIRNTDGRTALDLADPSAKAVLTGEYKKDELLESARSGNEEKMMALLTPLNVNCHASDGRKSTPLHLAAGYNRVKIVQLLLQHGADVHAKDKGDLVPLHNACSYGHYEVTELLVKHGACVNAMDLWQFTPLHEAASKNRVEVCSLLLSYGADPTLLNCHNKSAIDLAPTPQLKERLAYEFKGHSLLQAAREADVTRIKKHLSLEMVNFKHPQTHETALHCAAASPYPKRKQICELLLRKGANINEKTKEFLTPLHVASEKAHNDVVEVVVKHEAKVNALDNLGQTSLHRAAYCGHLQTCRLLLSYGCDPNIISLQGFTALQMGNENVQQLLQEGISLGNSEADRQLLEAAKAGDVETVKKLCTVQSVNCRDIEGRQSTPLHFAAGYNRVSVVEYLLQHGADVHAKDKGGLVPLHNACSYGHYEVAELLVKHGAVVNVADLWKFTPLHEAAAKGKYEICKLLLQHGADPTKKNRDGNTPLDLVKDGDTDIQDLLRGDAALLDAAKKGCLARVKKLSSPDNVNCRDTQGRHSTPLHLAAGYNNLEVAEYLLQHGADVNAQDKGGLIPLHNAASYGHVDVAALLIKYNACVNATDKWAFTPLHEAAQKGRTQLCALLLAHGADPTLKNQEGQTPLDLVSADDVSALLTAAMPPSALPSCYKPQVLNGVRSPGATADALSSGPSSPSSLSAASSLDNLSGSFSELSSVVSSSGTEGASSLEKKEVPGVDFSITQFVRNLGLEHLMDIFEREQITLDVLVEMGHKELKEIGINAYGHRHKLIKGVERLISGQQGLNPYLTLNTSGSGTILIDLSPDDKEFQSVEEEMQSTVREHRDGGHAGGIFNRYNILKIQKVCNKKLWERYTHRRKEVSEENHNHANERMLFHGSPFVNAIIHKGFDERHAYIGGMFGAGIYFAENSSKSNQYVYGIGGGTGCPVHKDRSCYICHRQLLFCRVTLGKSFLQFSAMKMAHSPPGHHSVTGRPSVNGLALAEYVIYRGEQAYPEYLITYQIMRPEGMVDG
Protocol: as §1

[1] = NAD+ consumption assay, > less than 50% inhibition at highest concentration, >> no inhibition
[2] = read-out: TNKS2 IC50, NAD+ consumption assay, > less than 50% inhibition at highest concentration, >> no inhibition

T1 sequence (Q9UGN5 whole entry): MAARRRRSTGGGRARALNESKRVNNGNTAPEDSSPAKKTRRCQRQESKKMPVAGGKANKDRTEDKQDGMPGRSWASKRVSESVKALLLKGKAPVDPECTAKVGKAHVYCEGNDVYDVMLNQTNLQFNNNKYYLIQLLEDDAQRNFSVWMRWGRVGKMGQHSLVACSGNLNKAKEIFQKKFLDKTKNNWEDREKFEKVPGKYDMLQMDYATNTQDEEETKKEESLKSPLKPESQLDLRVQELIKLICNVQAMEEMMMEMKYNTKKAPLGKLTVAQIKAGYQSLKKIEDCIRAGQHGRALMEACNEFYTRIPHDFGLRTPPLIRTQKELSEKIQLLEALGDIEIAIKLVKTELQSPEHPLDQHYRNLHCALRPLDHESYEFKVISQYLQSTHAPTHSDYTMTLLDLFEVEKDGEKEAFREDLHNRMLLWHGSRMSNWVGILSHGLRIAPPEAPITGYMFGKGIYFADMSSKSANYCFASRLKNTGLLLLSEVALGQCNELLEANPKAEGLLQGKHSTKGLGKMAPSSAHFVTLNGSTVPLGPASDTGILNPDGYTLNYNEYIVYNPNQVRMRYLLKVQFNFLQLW

SMILES	IC50 (PARP2; [1]) [µM]	TNKS2 pIC50 ± SEM (TNKS2; experiment repeated three times)	IC50 (TNKS2; [2]) [µM]	IC50 (TNKS2) [µM]	IC50 (PARP2) [µM]
Cc1ccc2sc3nncn3c2c1 [Compound 5, 6-Methyl[1,2,4]triazolo[3,4-b][1,3]benzothiazole]	1.5	(6.02 ± 0.13)	–	–	–
COc1cc(OC)c2sc3nncn3c2c1 [Compound 16, 6,8-Dimethoxy[1,2,4]triazolo[3,4-b][1,3]benzothiazole]	20	–	7.6	–	–
Cc1cccc2c1sc1nncn12 [Compound 6, 8-Methyl[1,2,4]triazolo[3,4-b][1,3]benzothiazole]	8.3	–	3.8	–	–
Cc1ccc2c(c1)sc1nnc(/N=C\c3ccc(Cl)cc3)n12 [Compound 25, N-[(1Z)-(4-chlorophenyl)methylene]-7-methyl[1,2,4]triazolo[3,4-b][1,3]benzothiazol-3-amine]	2.9	–	–	> 100	–
CCc1ccc2c(c1)sc1nncn12 [Compound 7, 7-Ethyl[1,2,4]triazolo[3,4-b][1,3]benzothiazole]	3.9	–	5.3	–	–
COc1ccc2sc3nncn3c2c1 [Compound 11, 6-Methoxy[1,2,4]triazolo[3,4-b][1,3]benzothiazole]	4.7	–	1	–	–
COc1ccc(OC)c2c1sc1nnc(NC(C)=O)n12 [Compound 31, N-(5,8-dimethoxy[1,2,4]triazolo[3,4-b][1,3]benzothiazol-3-yl)acetamide]	97	–	–	–	–
COc1ccc(OC)c2c1sc1nncn12 [Compound 13, 5,8-Dimethoxy[1,2,4]triazolo[3,4-b][1,3]benzothiazole]	9.2	–	4	–	–
CC(C)c1ccc2c(c1)sc1nncn12 [Compound 8, 7-Isopropyl[1,2,4]triazolo[3,4-b][1,3]benzothiazole]	4.5	–	9.5	–	–
Cc1cc(C)c2c(c1)sc1nncn12 [Compound 2]	1.3	–	1.2	–	–
COc1ccc2c(c1)sc1nncn12 [Compound 12]	8.8	–	5.5	–	–
Cc1ccc2c(c1)sc1nnc(NCc3ccc(Cl)cc3)n12 [Compound 24, N-(4-chlorobenzyl)-7-methyl[1,2,4]triazolo[3,4-b][1,3]benzothiazol-3-amine]	70	–	–	> 100	–
Clc1ccc2c(c1)sc1nncn12 [Compound 9]	2.4	–	10	–	–
Cc1ccc(F)c2c1sc1nncn12 [Compound 4, 5-Fluoro-8-methyl[1,2,4]triazolo[3,4-b][1,3]benzothiazole]	–	–	5.4	–	–
Oc1cccc2c1sc1nncn12 [Compound 18, [1,2,4]Triazolo[3,4-b][1,3]benzothiazol-8-ol]	29	–	17	–	–
Cc1ccc2c(c1)sc1nncn12 [Compound 1]	4	–	5.3	–	–
CSc1nnc2sc3cc(C)ccc3n12 [Compound 21, 7-Methyl-3-(methylthio)[1,2,4]triazolo[3,4-b][1,3]benzothiazole]	12	–	–	> 100	–
COc1ccc(OC)c2c1sc1n[nH]c(=S)n12 [Compound 26, 5,8-Dimethoxy[1,2,4]triazolo[3,4-b][1,3]benzothiazole-3(2H)-thione]	19	–	66	–	–
Cc1ccc2c(c1)sc1nnc(SCc3ccc(Cl)cc3)n12 [Compound 23, 3-[(4-Chlorobenzyl)thio]-7-methyl[1,2,4]triazolo[3,4-b][1,3]benzothiazole]	–	–	–	> 100	> 100
COc1cccc2c1sc1nncn12 [Compound 14, 8-Methoxy[1,2,4]triazolo[3,4-b][1,3]benzothiazole]	–	–	24	–	> 10
COc1cccc2sc3nncn3c12 [Compound 15, 5-Methoxy[1,2,4]triazolo[3,4-b][1,3]benzothiazole]	–	–	1	–	–
c1ccc2c(c1)sc1nncn12 [Compound 3]	–	–	2.5	–	5.3
COc1ccc(OC)c2c1sc1nnc(NC(=O)C(C)(C)C)n12 [Compound 30, N-(5,8-dimethoxy[1,2,4]triazolo[3,4-b][1,3]benzothiazol-3-yl)-2,2-dimethylpropanamide]	53	–	–	–	–
